# Reference: patent publication US9555137B2, “Uses of labeled HSP90 inhibitors” (Sloan-Kettering Institute for Cancer Research, priority 2011, dated 2017)
# Where two headings read alike, the source gives them in different places.
# How the values were obtained:
# HSP90 [1] = assay: concomitant binding to HSP90 and streptavidin in live K562 cells; format: cell-based; details: for HSP90-streptavidin binding with K562 cells: live K562 cells; for binding in live K562 cells: 100 μM, 4 h
# Text: Having shown that some of the molecules bind concomitantly to HSP90 and streptavidin, we next investigated whether this can similarly be accomplished in live cells.
# [2] = mouse, in vivo
# Text: (§1) We next determined in the brain and plasma of 3×Tg AD mice, the HSP90 inhibitor levels associated with these pharmacodynamic effects (FIG. 43C).
# in vivo = details: 3×Tg AD, mouse, ip, 50 mg/kg, AUC 0 to 48 h
# Text: as §1
# AML cell lines = assay: cell killing and apoptosis in AML cell lines (Acridine Orange/Ethidium Bromide); format: cell-based, human; details: cultured HEL cells
# Experimental: To evaluate the sensitivity spectrum of AML cell lines to HSP90 inhibitors, and to investigate a possible relationship between their genetic background and induction of apoptosis by HSP90 therapy, we made use of a varied cell panel. […]
# A ten-fold, in MOLM-13 and M0-91, and two-fold, in Kasumi-1 and SKNO-1, increase in caspase-3,7 activation was observed as early as 24 h. Essentially no live cells were detected for the M0-91 cell line after 48 h of HSP90 inhibitor treatment. […]
# Cells were treated for 24, 48 or 72 h with vehicle (DMSO) or inhibitors as indicated. Following staining with Acridine Orange and Ethidium Bromide (1:1 mix of 100 µg/ml), cells were visualized with a fluorescent microscope (Zeiss Axiovert 40 CFL) and counted. Percentage of apoptotic cells was determined from 200-300 cells counted in each group. The percentage of apoptotic cells was calculated as: % Apoptotic cells=(total number of cells with apoptotic nuclei/total number of cells counted)×100.
# oncogenic HSP90 [3] = assay: PU-FITC binding to EpCAM+ circulating tumor cells relative to leukocytes; format: cell-based, human; details: patient with HER2+ metastatic breast cancer
# Experimental: FIG. 20. PU-H71-FITC2 accumulation in EpCAM+ Circulating Tumor Cells: PBMC's isolated from whole blood were pre-treated with PU-FITC or controls (PU-FITC9, DMSO, 1 μM/2×10^6 cells/ml, 4 hrs). Cells were then stained with CD45, CD14 and EpCAM antibodies. (A) Cells are gated to exclude dead cells. Viable cells are then gated to determine EpCAM+ vs CD45+ cells. Monocytes are excluded from the analysis by gating the CD45+ cells further as FSC vs. CD14. (B) Histogram plots showing the PU-FITC Median florescence intensity (MFI) of CD45+CD14− cells (blue) and EpCAM+ cells (Red). The drug accumulation in EpCAM+ cells is calculated as the ratio of MFI EpCAM+/MFI CD45+CD14− (circulating tumor cells/leukocytes) after subtracting the values of the DMSO and PU-FITC9 controls (used to control for non-specific and background binding). […]
# All experimental blood sampling procedures were performed under the Institutional Review Board-approved protocols at Memorial Sloan Kettering Cancer Center. […] PBMC's are isolated on ficoll gradients, cells are counted and viability determined by trypan blue dye exclusion assay. […] Values are calculated as a ratio of the MFI of Tumor (EpCAM+CD45−CD14−): MFI of EpCAM−CD45+CD14− cells. […] This allows quantitation of the FITC fluorescence intensity in molecules of equivalent soluble fluorochrome (MESF units). […]
# oncogenic HSP90 [4] = assay: PU-FITC binding in primary leukemia samples, blasts relative to normal lymphocytes (flow cytometry); format: cell-based, human; details: blast crisis CML (bcCML) cells
# MOLM-13 cells = format: cell-based, human
# HSP90 [5] = assay: 131I-PU-H71 saturation binding in intact cancer cells; format: cell-based; details: MDA-MB-468 cells
# Text: The solutions were shaken in an orbital shaker and after 1 hr the cells were isolated and washed with ice cold Tris-buffered saline using a Brandel cell harvester. […] To calculate the percentage of HSP90, cellular HSP90 expression was quantified by using standard curves created of recombinant HSP90 purified from HeLa cells (Stressgen#ADI-SPP-770).
# [6] = [124I]-PU-H71 PET in cancer patients, tumor exposure to PU-H71; format: in vivo, human; details: human blood circulation
compound,measurement,setting,value
Nc1ncnc2c1nc(Sc1cc3c(cc1I)OCO3)n2CCCNC(=O)CCCC[C@@H]1SC[C@@H]2NC(=O)N[C@@H]21 [PU-H71-biotin3],HSP90-streptavidin binding with K562 cells,HSP90 [1],No
CC(C)(C)CNCCn1c(Sc2cc3c(cc2I)OCO3)nc2c(N)ncnc21 [PU-HZ151],cortex AUC relative to plasma AUC,[2],2.5 times
same,AUC(0-t),in vivo; exposure of the cortex,17.5 µM·h
same,AUC(0-t),in vivo; exposure of the plasma,7.1 µM·h
O=c1[nH]c2ccccc2n1C1CCN(Cc2ccc(-c3nc4cc5[nH]cnc5cc4nc3-c3ccccc3)cc2)CC1 [AKTi],cells committed to undergo apoptosis,AML cell lines,little to no effect
CC(C)N(CCCn1c(Sc2cc3c(cc2I)OCO3)nc2c(N)ncnc21)C(=S)Nc1ccc(-c2c3ccc(=O)cc-3oc3cc(O)ccc23)c(C(=O)O)c1 [PU-H71-FITC2],binding of circulating tumor cells relative to leukocytes (CD45+CD14−),oncogenic HSP90 [3],around 84 fold
same,binding relative to normal lymphocytes,oncogenic HSP90 [4],over 4 fold
same,viability of MOLM-13 cells,MOLM-13 cells,decrease the viability of MOLM-13 cells
CC(C)N(CCCn1c(Sc2cc3c(cc2I)OCO3)nc2c(N)ncnc21)C(=O)CCCCCNC(=O)CCCCCNC(=O)CCCC[C@@H]1SC[C@@H]2NC(=O)N[C@@H]21 [PU-H71-biotin8],binding in live K562 cells,HSP90 [1],able to permeate the cell membrane
same,HSP90-streptavidin binding with K562 cells,HSP90 [1],Yes
Nc1ncnc2c1nc(Sc1cc3c(cc1I)OCO3)n2CCCNC(=O)CCCCCNC(=O)CCCCCNC(=O)CCCC[C@@H]1SC[C@@H]2NC(=O)N[C@@H]21 [PU-H71-biotin5],binding in live K562 cells,HSP90 [1],able to permeate the cell membrane
same,HSP90-streptavidin binding with K562 cells,HSP90 [1],Yes
Nc1ncnc2c1nc(Sc1cc3c(cc1I)OCO3)n2CCCNCCOCCOCCOCCNC(=O)CCCC[C@@H]1SC[C@@H]2NC(=O)N[C@@H]21 [PU-H71-biotin],HSP90-streptavidin binding with K562 cells,HSP90 [1],No
Nc1ncnc2c1nc(Sc1cc3c(cc1I)OCO3)n2CCCNC(=O)CCOCCOCCOCCOCCNC(=O)CCCC[C@@H]1SC[C@@H]2NC(=O)N[C@@H]21 [PU-H71-biotin6],band at approximately 90 kDa in live K562 cells,HSP90 [1]; 0.5 μM,still shows a faint band
same,binding in live K562 cells,HSP90 [1],able to permeate the cell membrane
same,HSP90-streptavidin binding with K562 cells,HSP90 [1],Yes
CC(C)NCCCn1c(Sc2cc3c(cc2[131I])OCO3)nc2c(N)ncnc21 [^131I-PU-H71],available cellular binding sites bound per cell,HSP90 [5],≤ 5.5×10^6
same,fraction of total cellular HSP90 bound,HSP90 [5],26.6-33.5%
CC(C)N(CCCn1c(Sc2cc3c(cc2I)OCO3)nc2c(N)ncnc21)C(=O)CCCC[C@@H]1SC[C@@H]2NC(=O)N[C@@H]21 [PU-H71-biotin2],HSP90-streptavidin binding with K562 cells,HSP90 [1],No
CC(C)NCCCn1c(Sc2cc3c(cc2[124I])OCO3)nc2c(N)ncnc21 [[^124I]-PU-H71],tumor uptake from ROI analysis,4 h,0.35±0.07 % ID/g
same,activity in ROI circumscribing the entire mouse,4 h PET,40-50 % of the administered activity
same,concentration in tumor relative to bone,4 h p.a.,9 fold
same,concentration in tumor relative to brain,4 h p.a.,40 fold
same,concentration in tumor relative to heart,4 h p.a.,10 fold
same,concentration in tumor relative to muscle,4 h p.a.,18 fold
same,concentration in tumor relative to spleen,4 h p.a.,6 fold
same,[Atumor] activity concentration in tumor,24 h,~0.14±0.05 % ID/g
same,tumor uptake from ROI analysis,24 h,0.083±0.02 % ID/g
same,tumor uptake from ROI analysis,48 h,0.058±0.02 % ID/g
same,tumor uptake from ROI analysis,72 h,0.031±0.01 % ID/g
same,tumor uptake from ROI analysis,100 h,0.024±0.008 % ID/g
same,maximum thyroid activity,"between 4 and 28 h, no potassium iodide",< 0.4 % of the administered activity
same,tumor-to-blood activity concentration ratio,by ~12 h postinjection,≥ 10
same,time by which cleared from MDA-MB-468 tumors,post-administration,≤ 150 h
same,"blood t1/2, rapid clearance",[6],≈ 20 min
Nc1ncnc2c1nc(Sc1cc3c(cc1I)OCO3)n2CCCNC(=O)CCCCCNC(=O)CCCC[C@@H]1SC[C@@H]2NC(=O)N[C@@H]21 [PU-H71-biotin4],HSP90-streptavidin binding with K562 cells,HSP90 [1],No
CC(C)N(CCCn1c(Sc2cc3c(cc2I)OCO3)nc2c(N)ncnc21)C(=O)CCOCCOCCOCCOCCNC(=O)CCCC[C@@H]1SC[C@@H]2NC(=O)N[C@@H]21 [PU-H71-biotin9],binding in live K562 cells,HSP90 [1],able to permeate the cell membrane
same,HSP90-streptavidin binding with K562 cells,HSP90 [1],Yes
CC(C)N(CCCn1c(Sc2cc3c(cc2I)OCO3)nc2c(N)ncnc21)C(=O)CCCCCNC(=O)CCCC[C@@H]1SC[C@@H]2NC(=O)N[C@@H]21 [PU-H71-blotin7],HSP90-streptavidin binding with K562 cells,HSP90 [1],No
